From ChEMBL document CHEMBL5104159, “Synthesis and antitumor activity of a series of novel N-aryl-5-(2,2,2-trifluoroethoxy)-1,5-dihydro-2H-pyrrol-2-ones derivatives” (Bioorg Med Chem Lett, 2022)
Where a name gives a salt, the structure may show the parent alone. The source made the active and inactive calls. The rule behind the calls is not given here.

Legend:
[1] = tested on: K562; experiment: Antiproliferative activity against human K562 cells assessed as inhibition of cell growth; format: functional, cell-based
[2] = tested on: MDA-MB-231; experiment: Antiproliferative activity against human MDA-MB-231 cells assessed as inhibition of cell growth; format: functional, cell-based
[3] = tested on: A549; experiment: Antiproliferative activity against human A549 cells assessed as inhibition of cell growth; format: functional, cell-based
[4] = tested on: HeLa; experiment: Antiproliferative activity against human HeLa cells assessed as inhibition of cell growth; format: functional, cell-based
[5] = tested on: K562; experiment: Induction of cell cycle arrest in human K562 cells assessed as accumulation of cells at G1 phase at 10 uM by flow cytometry analysis (reference value: 73.3%); format: functional
[6] = tested on: K562; experiment: Induction of cell cycle arrest in human K562 cells assessed as accumulation of cells at G2 phase at 10 uM by flow cytometry analysis (reference value: 5.38%); format: functional
[7] = tested on: K562; experiment: Induction of cell cycle arrest in human K562 cells assessed as accumulation of cells at S phase at 10 uM by flow cytometry analysis (reference value: 21.32%); format: functional
[8] = tested on: K562; experiment: Induction of apoptosis in human K562 cells assessed as viable cells at 10 uM by AnnexinV-FITC/propidium iodide staining based flow cytometric analysis (reference value: 86.4%); format: functional; settings: read-out: Activity
[9] = tested on: K562; experiment: Induction of apoptosis in human K562 cells assessed as early apoptotic cells at 10 uM by AnnexinV-FITC/propidium iodide staining based flow cytometric analysis (reference value: 2.56%); format: functional
[10] = tested on: K562; experiment: Induction of apoptosis in human K562 cells assessed as late apoptotic cells at 10 uM by AnnexinV-FITC/propidium iodide staining based flow cytometric analysis (reference value: 5.1%); format: functional
[11] = tested on: K562; experiment: Induction of apoptosis in human K562 cells assessed as dead cells at 10 uM by AnnexinV-FITC/propidium iodide staining based flow cytometric analysis (reference value: 5.94%); format: functional
[12] = Cytotoxicity against human L02 cells assessed as cell viability at 2 ug/ml relative to control; format: toxicity, cell-based; settings: at 2 µg/mL, read-out: Activity
[13] = tested on: K562; experiment: Induction of apoptosis in human K562 cells assessed as increase in FADD level at 100 uM measured after 48 hrs by human apoptosis array analysis; format: functional, cell-based
[14] = tested on: K562; experiment: Induction of apoptosis in human K562 cells assessed as increase in pro-caspase 3 level at 100 uM measured after 48 hrs by human apoptosis array analysis; format: functional, cell-based
[15] = tested on: K562; experiment: Induction of apoptosis in human K562 cells assessed as increase in cleaved caspase-3 level at 100 uM measured after 48 hrs by human apoptosis array analysis; format: functional, cell-based
[16] = tested on: K562; experiment: Induction of apoptosis in human K562 cells assessed as increase in HTRA2/omi level at 100 uM measured after 48 hrs by human apoptosis array analysis; format: functional, cell-based
[17] = tested on: K562; experiment: Induction of apoptosis in human K562 cells assessed as increase in SMAC/Diablo level at 100 uM measured after 48 hrs by human apoptosis array analysis; format: functional, cell-based
[18] = tested on: K562; experiment: Induction of apoptosis in human K562 cells assessed as increase in Bax/Bcl-2 ratio at 100 uM measured after 48 hrs by human apoptosis array analysis; format: functional, cell-based

IC50 [1] [µM] | IC50 [2] [µM] | IC50 [3] [µM] | IC50 [4] [µM] | SMILES | other results
13.1 | 2.3 | 8.39 | 36.2 | O=C1C=CC(OCC(F)(F)F)N1c1ccc(C(F)(F)F)cc1 (stereo unspecified) | 
4.47 | 7.84 | 8.09 | 6.51 | CCc1ccc(N2C(=O)C=CC2OCC(F)(F)F)cc1 (stereo unspecified) | 
6.62 | 6.64 | 9.57 | 5.8 | CC(C)c1ccc(N2C(=O)C=CC2OCC(F)(F)F)cc1 (stereo unspecified) | 
 |  |  |  | COc1ccc(/C=C\c2cc(OC)c(OC)c(OC)c2)cc1O [COMBRETASTATIN A4] | Activity [5]: 21.92%; Activity [6]: 47.61%; Activity [7]: 30.46%; viability at 10 µM [8]: 32.7%; Activity [9]: 43.7%; Activity [10]: 22.2%; Activity [11]: 1.36%
1.64 | 2.43 | 1.63 | 5.92 | O=C1C=CC(OCC(F)(F)F)N1c1cc(Cl)cc(Cl)c1 (stereo unspecified) | 
4.48 | 2.41 | 4.3 | 1.89 | O=C1C=CC(OC(C(F)(F)F)C(F)(F)F)N1c1ccc(Cl)cc1 (stereo unspecified) | 
7.14 | 15.8 | 13.7 | 9.38 | Cc1ccc(N2C(=O)C=CC2OCC(F)(F)F)cc1 (stereo unspecified) | 
6.21 | 6.1 | 6.63 | 8.32 | O=C1C=CC(OCC(F)(F)F)N1c1ccc(Cl)cc1F (stereo unspecified) | 
0.34 |  | 0.15 | 1.07 | COc1cccc2c1C(=O)c1c(O)c3c(c(O)c1C2=O)C[C@@](O)(C(=O)CO)C[C@@H]3O[C@H]1C[C@H](N)[C@H](O)[C@H](C)O1 [DOXORUBICIN HYDROCHLORIDE] | 
24.6 | 15.3 | 23.4 | > 100 | O=C1C=CC(OCC(F)(F)F)N1c1ccccc1 (stereo unspecified) | 
1.53 | 2.83 | 3.27 | 2.38 | O=C1C=CC(OCC(F)(F)F)N1c1ccc([N+](=O)[O-])cc1 (stereo unspecified) | 
3.27 | 7.57 | 6.96 | 7.06 | O=C1C=CC(OCC(F)(F)F)N1c1ccc(Br)cc1 (stereo unspecified) | 
14.7 | 12.1 | 8.17 | 5.7 | COC(=O)c1ccc(N2C(=O)C=CC2OCC(F)(F)F)cc1 (stereo unspecified) | 
10.5 | > 100 | > 100 | 6.61 | CC(C)NC1CC(=O)N(c2ccc(F)c(Cl)c2)C1OCC(F)(F)F (stereo unspecified) | viability at 2 ug/ml [12]: 102%
12 | 20.6 | 44.9 | 19.2 | O=C1C=CC(OCC(F)(F)F)N1c1ccccc1F (stereo unspecified) | 
6.32 | 3.44 | 7.69 | 3.11 | O=C1C=CC(OCC(F)(F)F)N1c1ccc(F)c(Cl)c1 (stereo unspecified) | viability at 2 ug/ml [12]: 58%

SMILES | IC50 [1] [µM] | IC50 [2] [µM] | IC50 [3] [µM] | IC50 [4] [µM] | other results
O=C1C=CC(OCC(F)(F)F)N1c1cc(F)cc(F)c1 (stereo unspecified) | 0.52 | 7.84 | 5 | 8.46 | viability at 2 ug/ml [12]: 66%; Activity [5]: 15.21%; Activity [6]: 54.21%; Activity [7]: 30.58%; viability at 10 µM [8]: 50%; Activity [9]: 25.5%; Activity [10]: 22.3%; Activity [11]: 2.26%
O=C1c2c(O)ccc(O)c2C(=O)c2c(NCCNCCO)ccc(NCCNCCO)c21 [MITOXANTRONE] | 0.14 |  | 0.07 | 0.04 | 
CC(C)(C)c1ccc(N2C(=O)C=CC2OCC(F)(F)F)cc1 (stereo unspecified) | 0.07 | 1.86 | 8.5 | 18.1 | viability at 2 ug/ml [12]: 81%; Activity [5]: 18.84%; Activity [6]: 80.18%; Activity [7]: 0.98%; viability at 10 µM [8]: 41.5%; Activity [9]: 33.3%; Activity [10]: 22.8%; Activity [11]: 2.4%; Activity [13]: Active; Activity [14]: Active; Activity [15]: Active; Activity [16]: Active; Activity [17]: Active; Activity [18]: Active
